Results on three compounds are retold here after patent US5126258A (priority 1988, dated 1992).

Structures are written as SMILES. Like-named read-outs stand apart in the source and are kept apart here.

The target of experiment [1] is monoclonal receptor P3 6D4. Briefly: Stoichiometric transacylation reaction of monoclonal receptor P3 6D4 with coumarin ester Compound 5 (fluorescence) and its inhibition/inactivation. Type of experiment: biochemical, mouse. The procedure: A Perkin-Elmer LS-5 fluorescence spectrometer was operated at a fixed wavelength, using 355 nanometers (nm) for excitation and measuring the emission at 455 nm. A stock solution of the coumarin ester 5 was prepared in dioxane and was diluted to the desired concentrations in Tris-HCl (50 mM, pH 7) or sodium phosphate (50 mM, pH 4-9).
Reactions were run at 23 degrees C and were initiated by the addition of an aliquot of antibody solution (1 mg/ml) to substrate solutions to provide a final protein concentration of 100 nM. Final fluorescence values were determined by hydrolysis of the substrate with pig liver esterase. The observed reaction rate was corrected for spontaneous hydrolysis. Reaction kinetics were studied by measuring initial rates under pseudo-first order conditions. Active protein concentration was extrapolated from fluorescence values at the end of the reaction. The kinetic parameters were obtained by fitting the data to a hyperbolic curve and from double reciprocal plots. Inhibition constants were determined from the Lineweaver-Burk plot data with at least five inhibitor concentrations. All the data were studied by a least squares analysis.
Antibody preparations were inactivated without introducing fluorescent products by the addition of the activated ester (Compound 8) in dioxane to a solution of the IgG (5 mg/ml) in Tris-HCl (50 mM, pH 6.5) at a ratio of 5 moles of the ester (Compound 8) per mole IgG.
Protein modification was performed in an analogous manner, by the addition of a dioxane solution of the reagent at a known concentration to the antibody. The solution was incubated for 30 minutes before filtration through Sephadex G-25. The activity remaining was compared to control samples. Aliquots of IgG (5 mg/ml) inactivated with the ester (Compound 8) were diluted with four volumes of phosphate buffer (50 mM, pH 4-9, at intervals of 1 pH unit). Any pH change was recorded, and the sample was stored at 4 degrees C for 24 hours.
Initially, the ester was used at a concentration that was about four-fold greater than that of the protein, and the mixture was incubated at pH 7.2 for 10 minutes. Any change in fluorescence above background was noted.
The termination of the reaction is noted by the return of the rate of fluorescence increase to the background level.

Experiment [2] addresses monoclonal antibody P3 6D4. Description: Kinetics and inhibition of catalytic ester hydrolysis by monoclonal antibody P3 6D4, spectrophotometric at 245 nm. Particulars: for Ki: substrate Compound 7, read-out: inhibition constant ki, catalytic reaction with Compound 7. It counts as biochemical, mouse. Here is the method: FIG. 4 illustrates a Lineweaver-Burk plot for the hydrolysis of Compound 7 by anti-Compound 4 monoclonal antibody from hybridoma P3 6D4. Velocities were determined spectrophotometrically by measuring initial rates during the first linear portion of the reaction as described with reference to Table 2. The substrate concentrations were corrected for amounts consumed during initial equilibration. ( ) No inhibitor present. ( ) Inhibited by 50 nM phosphonate (Compound 3). ( ) Inhibited by 100 nM phosphonate (Compound 3).
In particular, an exemplary monoclonal receptor was produced by the standard hybridoma technology of Kohler et al., Nature, 256, 495 (1975). Specifically, female 129G1X^+ mice were immunized by intraperitoneal injection with an inoculum of 100 micrograms of conjugate (e.g., Compound 4i bound to KLH) in 300 microliters of a 1:1 mixture of phosphate buffered saline (PBS) pH 7.4 and complete Freund's adjuvant. Two weeks later, the mice were again injected in a like manner with 50 micrograms of the foregoing conjugate in 300 microliters of a 1:1 mixture of PBS (pH 7.4) and 10 mg/ml alum. After an additional eight weeks, the mice were immunized intravenously with 50 micrograms of the conjugate in 200 microliters of PBS (pH 7.4). The spleens were removed from the mice 4 days later, and the spleen cells were fused to myeloma cells.
Reaction kinetics were measured spectrophotometrically by following the absorption change at 245 nanometers. […] Kinetic parameters obtained with these substrates are shown in Table 2 along with the inhibition constants obtained with phosphonate (Compound 3). Under these conditions, the acceleration above the background rate is about 960-fold for Compound 7 and about 200-fold for Compound 8 (corrected for the background hydrolysis rate).
*The kinetic parameters shown in Table 2 are for the hydrolysis of esters
(Compounds 7 and 8) by monoclonal antibody P3 6D4. A PerkinElmer lambda 4
spectrophotometer, equipped with thermostatted cell holder, was used to
measure absorption changes at 245 nm. Cells containing the substrate at
concentrations of 0.5 to 50 micromolar in phosphate buffer (50 mM, pH 8.0
were preequilibrated at 25 degrees C. The concentration of active IgG in
stock solution was found by reacting with the coumarin ester (Compound 5)
and measuring the yield of hydroxycoumarin by fluorescence. The kinetic
run was initiated by addition of an aliquot of the antibody stock solutio
(in 50 mM phosphate buffer, pH 8.0) calculated to give 100 nM IgG. The
mixture was allowed to equilibrate for 2 to 3 minutes and the rate was
then measured during the subsequent 10 minutes. The absorption change for
complete hydrolysis was determined by treatment with esterase. Kinetic
parameters were obtained from L ineweaverBurk plots (see FIG. 4).
Inhibition constants were determined from a plot of the slopes with at
least four inhibitor concentrations of Compound 3. The data were analyzed

Setting [3] is: substrate Compound 5, estimated, read-out: inhibition constant, stoichiometric reaction with Compound 5.

Turning to `CC(=O)Nc1ccc(OP(=O)(O)Cc2ccc(NC(=O)C(F)(F)F)cc2)cc1` [Compound 1i], the Ki was 100 nM in experiment [1] (setting [3]) and 800 nM in experiment [2].
As for `CC(=O)Nc1ccc(OP(=O)(O)Cc2ccc(NC(=O)C(F)(F)F)cc2)c(CNC(=O)c2cccc(C(=O)O)n2)c1` [Compound 3i], the Ki was 35 nM in experiment [1] (setting [3]); 35 nM in experiment [1] (summary, kinetic parameters at low pH values, read-out: Ki (inhibition of antibody esterolysis)); 160 nM in experiment [2].
Take `O=C(O)c1ccccn1` [picolinic acid, reference compound]: the “effect of additive on antibody-enhanced esterolysis of Compound 5” value in experiment [1] (up to 100 micromolar added zinc and picolinic acid, EDTA concentration not given) is given as “No effect”. Moreover, the “effect of additive on rate of reaction of Compound 7 with antibody” value in experiment [2] (picolinic acid alone or picolinic acid and zinc chloride) is given as “no effect”.
